How the values were obtained:
[1] = system: human pancreatic islet tissue cultures; assay: Insulin production by ELISA, human islet tissue cultures (Example 3); assay type: cell-based; conditions: vs SEQ ID NO:1 and SEQ ID NO:5
Protocol: Samples are 0.002 μg total protein in duplicate and measured by ELISA assay.
Values are mean insulin units (of duplicate samples) as measured by ELISA assay.
Human pancreatic tissue was treated as described in Example 1 and Insulin production was measured by ELISA assay. FIGS. 5 and 6 show the results of this experiment to show a dose response and to again compare the effect of HIP2 on the two different fractions of tissue as compared to the hamster INGAP sequence and a scrambled negative peptide sequence. […] The results in FIG. 5 were generated using 5 μg of each peptide, while the results in FIG. 6 were acquired using 0.002 μg of each peptide.

[2] = system: human pancreatic progenitor cells; assay: Inverted microscopy of human ductal/progenitor tissue cultures (Example 4); assay type: cell-based
NOD mice = assay: NOD mouse model of type 1 diabetes (Example 5); assay type: in vivo; conditions: 250 ug/dose i.p. twice daily, 28 days, with anti-CD3, vs other test agents
Text: The non-obese diabetic (NOD) mouse strain has long been studied as an excellent model of type 1 diabetes because it spontaneously develops a disease that is very similar to the human condition. Diabetes in NOD mice is mediated by inflammatory autoreactive T cells that recognize pancreatic islet antigens and escape central and peripheral tolerance. In a parental colony of NOD mice, incidence of diabetes in female NOD mice is typically 75-90% by 30 weeks but may exceed 90% in some cohorts. In this example, 50 female NOD mice, ranging from 13-14 weeks old at the outset of the study, are used to test the effectiveness of HIP2 as compared to other test agents. Due to the unexpected variability of the degree of onset of disease, the number used in this example (50 female mice) is considered to be the minimum needed to result in a sufficient number of mice that will onset with disease within the timeframe of the study.
Animals were group housed in compliance with the National Research Council “Guide for the Care and Use of Laboratory Animals”. The animals received 12 hours light/12 hours dark, except when room lights were turned on during the dark cycle to accommodate study procedures. Room temperature was maintained between 18 to 26° C. at all times. […]
Blood glucose levels are measured every 3 days and tracked to evaluate differences in glucose levels.

[3] = system: pancreatic islets of treated mice; assay: Quantitative immunohistochemistry image analysis of mouse pancreata (Example 7); assay type: in vivo; conditions: vs control
Text: The islet mass of the placebo group was 854,362 μm (2) compared with 2,161,782 μm (2) in HIP-treated mice.
Islet size was not different between HIP treated and control group, whereas, islet number and mass was increased.

[4] = Stability of peptide in isotonic saline; assay type: physicochemical; conditions: 20° C. in isotonic saline
Protocol: Further, HIP2, may be stably stored for long periods of time.
HIP2, HIP1, HIP, controls and progenitor fractions were cultured over 10 days, according to standard protocol. Briefly, pancreata from adult human cadaveric organ donors were obtained through the local organ procurement organization. Islets were isolated according to established protocols described by Bonner-Weir and Jamal. (Bonner-Weir et al. Pediatric Diabetes: 2004; 5 (Suppl 2): 16-22. Jamal et al. Cell Death Differ. 2005 July; 12(7): 702-12). HIP2, HIP1, HIP and INGAP were synthesized by Bachem Bioscience, Malvern, Pa. and were quality tested by HPCL to be greater than 95% pure. Each peptide was provided in lyophilized powder and was resuspended in isotonic saline solution. Stock solutions were made so that only 1-2 ul aliquots were added to primary cell cultures to reach the final concentrations provided below. […] HPLC data confirmed that the peptides remained stable in the isotonic saline after the freeze/thaw cycles.

HIP2: Human proIslet Peptide, fragment of human REG3A, in purified, synthetic, or recombinant form (SEQ ID NO:4) (IGLHDPTQGTEPNG; Fragment of naturally occurring human REG3 protein)
insulin production (FIG. 6) ([1]; after 10 days, Rosenberg protocol, 0.002 μg): increased insulin production
insulin production (FIG. 8A) ([1]; two concentrations (3 μM and 1 mM)): increased insulin production
morphology of ductal tissue culture fraction (FIG. 4) ([2]; after treatment, just before lysis and RIA): Morphological changes show islet like structure
morphology of progenitor tissue cultures (FIG. 7A) ([2]; day 2 of treatment (day 12)): starting to bud at one end where a progenitor cell resides
morphology of progenitor tissue cultures (FIG. 7B) ([2]; day 6 of treatment (day 18)): darkening of the budding portion of the ductal epithelial cyst indicates the differentiation of cells
islet structure formation (micrograph, FIG. 4A) ([2]; pancreatic ductal tissue fraction culture, six days of culture with peptide): New islet structure has formed
blood glucose levels (NOD mice): pronounced reduction
insulinitis in pancreas (NOD mice): decreased showing of insulinitis
total islet mass (qualitative) [3]: increased total islet mass
total islet number (qualitative) [3]: increased total islet number
storage stability [4]: stable for months

Source: patent publication US8785400B2, “Methods and compositions relating to islet cell neogenesis” (CureDM Group Holdings, LLC, priority 2006, dated 2014)
